Where a name gives a salt, the structure may show the parent alone. Read-outs that look alike come from different tables or passages of the source. {AF594} = Alexa Fluor 594 dye
Tests used:
CLas [1] = assay type: in vivo, Candidatus Liberibacter asiaticus; conditions: for effect on quantity of the bacterium (Liberibacter titer) in infected Citrus trees: FANA 5 μM, streptomycin sulfate 5 mg/mL, sampling 2, 7, 14, 30 days (FIG. 5); for Liberibacter repression (percent change in CLas titer): CLas-infected Citrus trees, root infusion 5 mL of 5 μM
CLso [2] = assay type: in vivo, Candidatus Liberibacter solanacearum; conditions: CLso infected potato, soil applied drench, one gallon pots (FIG. 8); infected untreated control ave. 39, uninfected healthy 66 cm
CLso [3] = assay type: in vivo, Candidatus Liberibacter solanacearum; conditions: for foliar disease symptoms (foliar symptom ranking) / products with the greatest foliar symptom reduction: 8 week trial; for foliar disease symptoms (foliar symptom ranking): soil application (FIG. 11B); for products with the greatest foliar symptom reduction: comparison among all products (FIG. 11B); for tuber disease symptoms (proportion of symptomatic tubers) compared to CLso infected Control tubers: 8 week trial (FIG. 11C)
CLas [4] = assay type: in vivo, Candidatus Liberibacter asiaticus
CLas LigA gene = assay type: in vivo, Candidatus Liberibacter asiaticus
wDi gyrA gene = assay type: cell-based, Wolbachia-Diaphorina
CLas [5] = assay type: in vivo, Candidatus Liberibacter asiaticus; remark: listed apart in the source
D. citri adults = test system: D. citri adults; parameters: species or system Diaphorina citri; conditions: in vivo

Molecule: [H]/N=C(/N)N[C@H]1[C@H](O)[C@@H](O)[C@H](O[C@@H]2O[C@@H](C)[C@](O)(C=O)[C@H]2O[C@@H]2O[C@@H](CO)[C@H](O)[C@@H](O)[C@@H]2NC)[C@@H](N/C(N)=N\[H])[C@@H]1O [streptomycin sulfate, reference compound]
- effect on quantity of the bacterium (Liberibacter titer) in infected Citrus trees (CLas [1]; root infusion): did not significantly reduced

Molecule: AATAAACGCAATGACCAATCC (FANA modification, further chemistry not given here) [CLso-1 GyrA-Ext-1, FANA ASO, CLso Gyrase-A]
- plant growth, average height (CLso [2]): 51 centimeters
- foliar disease symptoms (foliar symptom ranking) (CLso [3]): significantly reduced

Molecule: ATAACCTTGACGATCTGATTC (FANA modification, further chemistry not given here) [CLso-2 Gyr-Ext-2, FANA ASO, CLso Gyrase-A]
- plant growth, average height (CLso [2]): 51 centimeters
- products with the greatest foliar symptom reduction (CLso [3]): most symptom reduction
- foliar disease symptoms (foliar symptom ranking) (CLso [3]): significantly reduced

Molecule: AUAUCCTTGTCGTATCCCAGU (FANA modification, further chemistry not given here) [scramble control FANA, reference compound]
- CLas density (copy number) in psyllids (CLas [4]; in vivo): No difference
- number of viable wDi cells (wDi copy number, PMA-qPCR) (wDi cells): high wDi copy number
- toxicity of the FANA chemistry to the bacterial cells or the Drosophila S2 cells (wDi cells): not toxic
- amount of CLas LygA mRNA versus untreated psyllids (CLas LigA gene; in vivo): no significant difference
- expression of the wDi gyrA gene versus untreated cells (wDi gyrA gene): No significant difference

Molecule: CAAATCAGGTATAGCACGGCC (FANA modification, further chemistry not given here) [CLso-2Gyr, FANA ASO, CLso Gyrase A]
- foliar disease symptoms (foliar symptom ranking) (CLso [3]): significantly reduced

Molecule: CATTTTGTATATGCGAGGACA (FANA modification, further chemistry not given here) [CLsoDNAB-4, FANA ASO, CLso DnaB-Helicase C]
- tuber disease symptoms (proportion of symptomatic tubers) compared to CLso infected Control tubers (CLso [3]): significantly reduced
- foliar disease symptoms (foliar symptom ranking) (CLso [3]): significantly reduced

Molecule: CGATTAAAAGCTTGTCCAGCC (FANA modification, further chemistry not given here) [CLsoDNAB-3, FANA ASO, CLso DnaB-Helicase C]
- foliar disease symptoms (foliar symptom ranking) (CLso [3]): significantly reduced

Molecule: CGGCACAGCAATTAGAACGTC (FANA modification, further chemistry not given here) [LigA-FANA, FANA antisense oligo designed to target the CLas NAD-dependent DNA Ligase A gene]
- CLas density (copy number) in psyllids (CLas [4]; D. citri adults, artificial diet 5 μM, seven days post-treatment, qPCR of 16S rRNA gene (FIG. 4), versus untreated psyllids): significantly lower
- decrease of expression of the bacterial target gene (CLas LigA) compared to untreated psyllids (CLas LigA gene; D. citri adults fed on excised Citrus leaves that took up 5 μM FANA solution, seven days, qRT-PCR (FIG. 2B)): 75%
- CLas LigA transcript level compared to insects treated with the scramble control (CLas LigA gene; D. citri adults, 5 μM via leaves, seven days, p=0.009): significantly lower
- Liberibacter repression (percent change in CLas titer) (CLas [1]; seven days post treatment (FIG. 5)): 51.6%
- Liberibacter repression (percent change in CLas titer) (CLas [1]; two days post treatment (FIG. 5)): 81%
- persistence of the suppression effect (CLas [1]; root infusion, sampling period): 30 days
- effect on quantity of the bacterium (Liberibacter titer) in infected Citrus trees (CLas [1]; root infusion): significantly reduced
- success of treated psyllids in transmitting the pathogen into citrus plants compared to untreated insects (CLas [5]; psyllids treated seven days, 15 days inoculation access on Citrus macrophylla seedlings, p=0.018): less successful in transmitting the pathogen
- CLas copy number detected in the citrus plants exposed to the treated psyllids (CLas [5]; seedlings sampled three months later (FIG. 7)): significantly lower

Molecule: GAAGAACGGGCGAACTTTTTG (chemistry not given here) [L. solanacearum CLso2 -GyrA host Potato]
- plant growth, average height (CLso [2]): 51 centimeters
- foliar disease symptoms (foliar symptom ranking) (CLso [3]): significantly reduced

Molecule: GATTGAAGGGCAGGGGAATTC (chemistry not given here)
- foliar disease symptoms (foliar symptom ranking) (CLso [3]): significantly reduced

Molecule: GCATCATTATTCACTAGGATAG (FANA modification, further chemistry not given here) [CLsoDNAB-1, FANA ASO, CLso DnaB-Helicase C]
- products with the greatest foliar symptom reduction (CLso [3]): most symptom reduction
- foliar disease symptoms (foliar symptom ranking) (CLso [3]): significantly reduced

Molecule: GGGAATATTCGTCGCCATACC (FANA modification, further chemistry not given here) [CLso-4Gyr, FANA ASO, CLso Gyrase A]
- foliar disease symptoms (foliar symptom ranking) (CLso [3]): significantly reduced

Molecule: TAGTTCCGATTTGTATGCATC (FANA modification, further chemistry not given here) [CLsoDnaB-6, FANA ASO, CLso DnaB-Helicase C]
- foliar disease symptoms (foliar symptom ranking) (CLso [3]): significantly reduced

Molecule: TATGGAAACAGCCTCAGATGC (FANA modification, further chemistry not given here) [CLsoDNAB-2, FANA ASO, CLso DnaB-Helicase C]
- tuber disease symptoms (proportion of symptomatic tubers) compared to CLso infected Control tubers (CLso [3]): significantly reduced
- foliar disease symptoms (foliar symptom ranking) (CLso [3]): significantly reduced

Molecule: TATTACGATAGATCCTCGACC (FANA modification, further chemistry not given here) [CLso-2Gyr-Ext-3, FANA ASO, CLso Gyrase A]
- foliar disease symptoms (foliar symptom ranking) (CLso [3]): significantly reduced

Molecule: TGGTATGGCAACCAATATTCC (FANA modification, further chemistry not given here) [gyrA-FANA, FANA oligo complementary to the mRNA of Wolbachia-Diaphorina, wDi gyrA gene]
- number of viable wDi cells (wDi copy number, PMA-qPCR) (wDi cells; isolated wDi cells, 5 μM, four days, versus untreated or scramble control (FIG. 3)): greatly reduced
- reduction in the amount of the target mRNA (wDi gyrA) compared to untreated cells (wDi gyrA gene; S2-wDi cells, 5 μM, seven days post-treatment, qRT-PCR (FIG. 2A)): 30%
- wDi gyrA transcript level compared to cells treated with the scramble control (wDi gyrA gene; S2-wDi cells, 5 μM, seven days, p=0.009): significantly lower

Molecule: TGTATATGCGAGGACATCGTC (FANA modification, further chemistry not given here) [CLso-DnaB-7, FANA ASO, CLso DnaB-Helicase C]
- foliar disease symptoms (foliar symptom ranking) (CLso [3]): significantly reduced

Molecule: TTCTATCAGGGTAAATCGCTC (FANA modification, further chemistry not given here) [CLso-2 Gyr-Ext-4, FANA ASO, CLso Gyrase-A]
- plant growth, average height (CLso [2]): 51 centimeters
- tuber disease symptoms (proportion of symptomatic tubers) compared to CLso infected Control tubers (CLso [3]): significantly reduced
- foliar disease symptoms (foliar symptom ranking) (CLso [3]): significantly reduced

Molecule: TTGTCCAGCCATATCAATAGC (FANA modification, further chemistry not given here) [CLsoDnaB-5, FANA ASO, CLso DnaB-Helicase C]
- foliar disease symptoms (foliar symptom ranking) (CLso [3]): significantly reduced

Molecule: fluorophore-tagged FANA oligo control: FANA ASO with scramble sequence [SEQ ID NO: 1 and SEQ ID NO: 2] tagged with Alexa Fluor 594 at its 5′ end (chain 1 ACTGGGATACGACAAGGATAT; chain 2 TCTTGGAACAGCATAGGGACA; 5' {AF594}, sugars by position and backbone not given here; FANA ASO)
- localization of the oligo in psyllid alimentary canal (D. citri adults): detected mainly in the psyllid esophagus, filter chamber and anterior midgut
